Counter-ions that a name gives are not always drawn. Like-named read-outs stand apart in the source and are kept apart here. Bounds are passed on as bounds.

The target of assay [1] is PI3Kδ (p110δ/p85α) Recombinant Human Protein (Homo sapiens (Human), UniProt O00329). The assay is described as follows: PI3Kδ scintillation proximity assay. The format is biochemical. Conditions: 2 μM ATP, 20 μM PIP2.
Assay [2] has as its target PI3Kγ (p110γ) Recombinant Human Protein (Homo sapiens (Human), UniProt P48736). The assay is described as follows: PI3K-γ scintillation proximity assay. It is filed as biochemical. Conditions: 2 μM ATP, 20 μM PIP2.
For assay [3], the system named is Phosphorylated Ribosomal Protein S6 (RPS6) in THP-1 cells. The assay is described as follows: THP-1 RPS6 ELISA assay. Conditions: 10 nM MCP-1, read-out: PI3Kγ_THP1_RPS6_ELISA IC50. The format is cell-based, human.
Where [4] appears, read: Homo sapiens, THP-1, THP-1 cells.

PI3Kδ (p110δ/p85α) Recombinant Human Protein, sequence (O00329 whole entry): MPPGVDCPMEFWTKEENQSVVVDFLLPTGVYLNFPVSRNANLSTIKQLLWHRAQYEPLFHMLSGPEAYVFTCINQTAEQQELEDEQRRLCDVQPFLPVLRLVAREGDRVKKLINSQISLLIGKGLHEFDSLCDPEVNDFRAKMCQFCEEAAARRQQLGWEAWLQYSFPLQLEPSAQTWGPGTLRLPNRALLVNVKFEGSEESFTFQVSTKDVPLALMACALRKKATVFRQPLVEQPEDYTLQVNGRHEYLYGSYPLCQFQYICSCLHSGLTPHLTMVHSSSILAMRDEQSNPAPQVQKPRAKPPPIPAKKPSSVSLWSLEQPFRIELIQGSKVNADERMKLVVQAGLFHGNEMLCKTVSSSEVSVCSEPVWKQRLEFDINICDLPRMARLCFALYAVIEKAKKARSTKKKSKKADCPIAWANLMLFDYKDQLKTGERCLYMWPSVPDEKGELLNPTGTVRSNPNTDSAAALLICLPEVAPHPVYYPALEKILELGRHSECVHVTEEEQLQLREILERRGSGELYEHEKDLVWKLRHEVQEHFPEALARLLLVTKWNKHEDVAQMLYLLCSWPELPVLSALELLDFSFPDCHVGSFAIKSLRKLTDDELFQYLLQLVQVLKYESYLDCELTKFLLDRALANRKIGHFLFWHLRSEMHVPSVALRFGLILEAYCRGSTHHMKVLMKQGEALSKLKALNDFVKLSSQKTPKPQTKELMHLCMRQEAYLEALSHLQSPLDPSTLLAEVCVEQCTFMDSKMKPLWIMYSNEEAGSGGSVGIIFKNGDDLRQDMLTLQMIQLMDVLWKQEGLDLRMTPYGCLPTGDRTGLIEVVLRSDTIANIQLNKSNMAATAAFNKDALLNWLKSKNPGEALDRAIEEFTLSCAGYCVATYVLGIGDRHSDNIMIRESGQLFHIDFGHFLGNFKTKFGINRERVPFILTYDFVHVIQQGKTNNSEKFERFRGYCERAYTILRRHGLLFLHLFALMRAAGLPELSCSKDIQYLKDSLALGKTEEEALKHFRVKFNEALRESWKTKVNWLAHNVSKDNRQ
PI3Kδ (p110δ/p85α) Recombinant Human Protein, sequence (P27986 whole entry partner): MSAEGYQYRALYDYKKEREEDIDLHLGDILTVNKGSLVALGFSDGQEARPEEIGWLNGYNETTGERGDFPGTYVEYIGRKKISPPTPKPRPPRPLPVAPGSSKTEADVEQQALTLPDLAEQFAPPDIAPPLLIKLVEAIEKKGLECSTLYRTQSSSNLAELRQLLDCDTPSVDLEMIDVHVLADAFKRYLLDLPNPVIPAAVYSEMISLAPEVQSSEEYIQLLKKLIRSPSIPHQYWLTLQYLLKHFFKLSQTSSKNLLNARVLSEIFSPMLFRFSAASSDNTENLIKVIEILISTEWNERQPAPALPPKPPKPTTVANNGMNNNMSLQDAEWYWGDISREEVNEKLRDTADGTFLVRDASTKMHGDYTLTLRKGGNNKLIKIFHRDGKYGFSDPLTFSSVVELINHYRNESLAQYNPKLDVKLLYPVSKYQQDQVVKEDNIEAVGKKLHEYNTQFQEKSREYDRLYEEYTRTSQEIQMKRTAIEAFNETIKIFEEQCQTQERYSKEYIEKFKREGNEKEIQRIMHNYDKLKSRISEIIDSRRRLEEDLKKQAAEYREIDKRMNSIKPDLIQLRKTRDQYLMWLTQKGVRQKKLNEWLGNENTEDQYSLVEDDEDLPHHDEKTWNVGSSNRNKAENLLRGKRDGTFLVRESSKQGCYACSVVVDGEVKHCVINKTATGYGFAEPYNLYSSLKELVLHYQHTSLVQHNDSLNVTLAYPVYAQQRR
PI3Kγ (p110γ) Recombinant Human Protein, sequence (P48736 whole entry): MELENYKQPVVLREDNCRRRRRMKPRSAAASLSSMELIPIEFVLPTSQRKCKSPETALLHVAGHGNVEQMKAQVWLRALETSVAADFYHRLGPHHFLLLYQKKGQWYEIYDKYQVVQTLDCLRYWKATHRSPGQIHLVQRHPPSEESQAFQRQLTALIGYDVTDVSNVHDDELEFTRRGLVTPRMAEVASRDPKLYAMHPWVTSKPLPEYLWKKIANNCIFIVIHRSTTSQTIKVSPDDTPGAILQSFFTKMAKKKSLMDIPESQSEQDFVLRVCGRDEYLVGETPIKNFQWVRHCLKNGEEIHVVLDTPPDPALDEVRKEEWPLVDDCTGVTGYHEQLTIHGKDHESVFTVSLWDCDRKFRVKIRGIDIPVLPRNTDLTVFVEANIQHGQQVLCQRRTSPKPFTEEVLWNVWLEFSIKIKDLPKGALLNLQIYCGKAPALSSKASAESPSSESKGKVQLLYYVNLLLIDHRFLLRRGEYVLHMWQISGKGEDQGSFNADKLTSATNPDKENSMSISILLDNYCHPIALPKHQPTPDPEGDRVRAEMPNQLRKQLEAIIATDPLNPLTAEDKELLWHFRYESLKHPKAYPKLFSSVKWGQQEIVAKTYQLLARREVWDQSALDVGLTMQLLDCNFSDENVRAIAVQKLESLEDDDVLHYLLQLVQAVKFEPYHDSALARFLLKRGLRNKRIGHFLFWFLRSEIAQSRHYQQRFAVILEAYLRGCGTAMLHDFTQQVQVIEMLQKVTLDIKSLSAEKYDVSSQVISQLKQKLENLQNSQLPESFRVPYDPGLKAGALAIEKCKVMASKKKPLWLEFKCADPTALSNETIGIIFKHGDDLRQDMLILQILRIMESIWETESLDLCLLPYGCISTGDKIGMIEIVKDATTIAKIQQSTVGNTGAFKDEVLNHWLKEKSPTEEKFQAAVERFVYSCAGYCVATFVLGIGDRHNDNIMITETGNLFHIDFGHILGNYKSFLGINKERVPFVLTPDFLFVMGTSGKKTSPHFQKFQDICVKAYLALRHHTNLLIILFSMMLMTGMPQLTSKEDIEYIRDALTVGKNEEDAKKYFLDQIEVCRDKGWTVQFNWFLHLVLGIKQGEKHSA

Turning to `COC(=O)C1CCN(c2c(C(C)NC(=O)c3c(N)nn4cccnc34)cc(Cl)c3cn[nH]c23)C1` (stereo not drawn) [Example 102, Methyl 1-[6-(1-{[(2-aminopyrazolo[1,5-a]pyrimidin-3-yl)carbonyl]amino}ethyl)-4-chloro-2H-indazol-7-yl]pyrrolidine-3-carboxylate trifluoroacetate], the IC50 in assay [1] was less than 500 nM; in assay [2] it was less than 100 nM; in assay [3] (setting [4]), greater than 1000 nM.
For `CC(=O)N[C@H]1CCCN(c2c(C(C)NC(=O)c3c(N)nn4cccnc34)cc(Cl)c3cn[nH]c23)C1` (stereo partly drawn) [Example 104, N-(1-(7-((S)-3-Acetamidopiperidin-1-yl)-4-chloro-1H-indazol-6-yl)ethyl)-2-aminopyrazolo[1,5-a]pyrimidine-3-carboxamide trifluoroacetate], the IC50 in assay [1] was less than 100 nM; in assay [2], less than 100 nM; in assay [3] (setting [4]) it was less than 500 nM.
On to `CC(NC(=O)c1c(N)nn2cccnc12)c1cc(Cl)c2cn[nH]c2c1N1CCC[C@H](NS(C)(=O)=O)C1` (stereo partly drawn) [Example 105, 2-Amino-N-[1-(4-chloro-7-{(3S)-3-[(methylsulfonyl)amino]piperidin-1-yl}-2H-indazol-6-yl)ethyl]pyrazolo[1,5-a]pyrimidine-3-carboxamide trifluoroacetate], for which the IC50 in assay [1] was less than 100 nM; in assay [2], less than 100 nM; in assay [3] (setting [4]), less than 500 nM.
As for `CCOC(=O)C1CCN(c2c(C(C)NC(=O)c3c(N)nn4cccnc34)cc(Cl)c3cn[nH]c23)CC1` (stereo not drawn) [Example 106, Ethyl 1-[6-(1-{[(2-aminopyrazolo[1,5-a]pyrimidin-3-yl)carbonyl]amino}ethyl)-4-chloro-2H-indazol-7-yl]piperidine-4-carboxylate trifluoroacetate], the IC50 in assay [1] is less than 500 nM; in assay [2] it was less than 100 nM; in assay [3] (setting [4]), greater than 1000 nM.
On to `CNC(=O)C1CCN(c2c(C(C)NC(=O)c3c(N)nn4cccnc34)cc(Cl)c3cn[nH]c23)CC1` (stereo not drawn) [Example 107, 2-Amino-N-[1-(4-chloro-7-{4-[(methylamino)carbonyl]piperidin-1-yl}-2H-indazol-6-yl)ethyl]pyrazolo[1,5-a]pyrimidine-3-carboxamide trifluoroacetate], for which the values for the IC50 in assay [1], in assay [2] and in assay [3] (setting [4]) were less than 500 nM, less than 100 nM and less than 500 nM, respectively.
As for `CC(NC(=O)c1c(N)nn2cccnc12)c1cc(Cl)c2ccnn2c1N1CCCS(=O)(=O)CC1` (stereo not drawn) [Example 109, 2-Amino-N-{1-[4-chloro-7-(1,1-dioxido-1,4-thiazepan-4-yl)pyrazolo[1,5-a]pyridin-6-yl]ethyl}pyrazolo[1,5-a]pyrimidine-3-carboxamide trifluoroacetate], the IC50 was less than 100 nM in assay [1], less than 100 nM in assay [2] and less than 500 nM in assay [3] (setting [4]).
Take `CC(NC(=O)c1c(N)nn2cccnc12)c1cc(Cl)c2ccnn2c1N1CCNS(=O)(=O)CC1` (stereo not drawn) [Example 110, 2-Amino-N-{1-[4-chloro-7-(1,1-dioxido-1,2,5-thiadiazepan-5-yl)pyrazolo[1,5-a]pyridin-6-yl]ethyl}pyrazolo[1,5-a]pyrimidine-3-carboxamide trifluoroacetate]: the IC50 in assay [1] was less than 100 nM; in assay [2], less than 100 nM; in assay [3] (setting [4]), less than 500 nM.
Regarding `CC(NC(=O)c1c(N)nn2cccnc12)c1cc(Cl)c2ccnn2c1N1CCS(=O)(=O)C(C)(C)C1` (stereo not drawn) [Example 111, 2-Amino-N-{1-[4-chloro-7-(2,2-dimethyl-1,1-dioxidothiomorpholin-4-yl)pyrazolo[1,5-a]pyridin-6-yl]ethyl}pyrazolo[1,5-a]pyrimidine-3-carboxamide trifluoroacetate], the figures for the IC50 in assay [1], in assay [2] and in assay [3] (setting [4]) were less than 100 nM, less than 100 nM and less than 500 nM, respectively.
With `CC(NC(=O)c1c(N)nn2cccnc12)c1cc(Cl)c2c(Cl)cnn2c1N1CCS(=O)(=O)C(C)C1` (stereo not drawn) [Example 112A, 2-Amino-N-{1-[3,4-dichloro-7-(2-methyl-1,1-dioxidothiomorpholin-4-yl)pyrazolo[1,5-a]pyridin-6-yl]ethyl}pyrazolo[1,5-a]pyrimidine-3-carboxamide trifluoroacetate], the values for the IC50 in assay [1], in assay [2] and in assay [3] (setting [4]) were less than 100 nM, less than 100 nM and less than 500 nM, respectively.
Regarding `CC(NC(=O)c1c(N)nn2cccnc12)c1cc(Cl)c2c(Cl)cnn2c1N1CCS(=O)(=O)CC1` (stereo not drawn) [Example 113, 2-Amino-N-{1-[3,4-dichloro-7-(1,1-dioxidothiomorpholin-4-yl)pyrazolo[1,5-a]pyridin-6-yl]ethyl}pyrazolo[1,5-a]pyrimidine-3-carboxamide trifluoroacetate], the IC50 in assay [1] is less than 100 nM; in assay [2], less than 100 nM; in assay [3] (setting [4]), less than 500 nM.
As to `CC(NC(=O)c1c(N)nn2cccnc12)c1cc(Cl)c2c(Cl)cnn2c1N1CCCS(=O)(=O)CC1` (stereo not drawn) [Example 114, 2-Amino-N-{1-[3,4-dichloro-7-(1,1-dioxido-1,4-thiazepan-4-yl)pyrazolo[1,5-a]pyridin-6-yl]ethyl}pyrazolo[1,5-a]pyrimidine-3-carboxamide trifluoroacetate], the IC50 in assay [1] was less than 100 nM; in assay [2], less than 100 nM; in assay [3] (setting [4]), less than 500 nM.
For `CC(NC(=O)c1c(N)nn2cccnc12)c1cc(Cl)c2c(Cl)cnn2c1N1CCNS(=O)(=O)CC1` (stereo not drawn) [Example 115, 2-Amino-N-{1-[3,4-dichloro-7-(1,1-dioxido-1,2,5-thiadiazepan-5-yl)pyrazolo[1,5-a]pyridin-6-yl]ethyl}pyrazolo[1,5-a]pyrimidine-3-carboxamide trifluoroacetate], the IC50 was less than 100 nM in assay [1], less than 100 nM in assay [2] and less than 500 nM in assay [3] (setting [4]).
Consider `CC(NC(=O)c1c(N)nn2cccnc12)c1cc(Cl)c2c(Cl)cnn2c1N1CCS(=O)(=O)C(C)(C)C1` (stereo not drawn) [Example 116, 2-Amino-N-{1-[3,4-dichloro-7-(2,2-dimethyl-1,1-dioxidothiomorpholin-4-yl)pyrazolo[1,5-a]pyridin-6-yl]ethyl}pyrazolo[1,5-a]pyrimidine-3-carboxamide trifluoroacetate], for which the IC50 in assay [1] is less than 100 nM; in assay [2], less than 100 nM; in assay [3] (setting [4]), less than 500 nM.
As to `COc1cncc(-c2c(C(C)NC(=O)c3c(N)nn4cccnc34)cc(Cl)c3cncn23)c1` (stereo not drawn) [Example 134, 2-Amino-N-{1-[8-chloro-5-(5-methoxypyridin-3-yl)imidazo[1,5-d]pyridin-6-yl]ethyl}pyrazolo[1,5-a]pyrimidine-3-carboxamide trifluoroacetate salt], the IC50 in assay [1] was less than 500 nM; in assay [2], less than 100 nM; in assay [3] (THP-1 cells), greater than 1000 nM.
For `COC1CCN(c2c(C(C)NC(=O)c3c(N)nn4cccnc34)cc(Cl)c3cncn23)C1` (stereo not drawn) [Example 144, 2-Amino-N-{1-[8-chloro-5-(3-methoxypyrrolidin-1-yl)imidazo[1,5-a]pyridin-6-yl]ethyl}pyrazolo[1,5-a]pyrimidine-3-carboxamide trifluoroacetate salt], the IC50 in assay [1] was less than 500 nM; in assay [2], less than 100 nM; in assay [3] (setting [4]) it was less than 500 nM.
In the case of `CC(NC(=O)c1c(N)nn2cccnc12)c1cc(Cl)c2cncn2c1N1CCC(O)C1` (stereo not drawn) [Example 148, 2-Amino-N-{1-[8-chloro-5-(3-hydroxy-pyrrolidin-1-yl)imidazo[1,5-a]pyridin-6-yl]ethyl}pyrazolo [1,5-a]pyrimidine-3-carboxamide trifluoroacetate salt], the IC50 in assay [1], in assay [2] and in assay [3] (setting [4]) was less than 500 nM throughout.
Consider `CC(NC(=O)c1c(N)nn2cccnc12)c1cc(Cl)c2cncn2c1N1C[C@@H](O)C[C@H](O)C1` (stereo partly drawn) [Example 150, 2-Amino-N-(1-{8-chloro-5-[(3S,5S)-3,5-dihydroxypiperidin1-yl]imidazo[1,5-a]pyridin-6-yl}ethyl)pyrazol[1,5-a]pyrimidine-3-carboxamide trifluoroacetate salt], for which the IC50 is less than 100 nM in assay [1], less than 100 nM in assay [2] and less than 500 nM in assay [3] (THP-1 cells).
Regarding `CC(NC(=O)c1c(N)nn2cccnc12)c1cc(Cl)c2cncn2c1N1CCCC(O)C1` (stereo not drawn) [Example 152, 2-Amino-N-(1-{8-chloro-5-[(3)-3-hydroxypiperidin-1-yl]imidazo[1,5-a]pyridin-6-yl}ethyl)pyrazolo[1,5-a]pyrimidine-3-carboxamide trifluoroacetate salt], the IC50 was less than 100 nM in assay [1], less than 100 nM in assay [2] and less than 500 nM in assay [3] (THP-1 cells).
Take `CC(NC(=O)c1c(N)nn2cccnc12)c1cc(Cl)c2cncn2c1N1CCC(C#N)CC1` (stereo not drawn) [Example 153, 2-Amino-N-{1-[8-chloro-5-(4-cyanopiperidin-1-yl)imidazo[1.5-a]pyridin-6-yl]ethyl}pyrazolo[1,5-a]pyrimidine-3-carboxamide trifluoroacetate salt]: the IC50 in assay [1] was less than 100 nM; in assay [2] it was less than 100 nM; in assay [3] (THP-1 cells) it was less than 500 nM.
`CC(NC(=O)c1c(N)nn2cccnc12)c1cc(Cl)c2cncn2c1N1C[C@H](O)C[C@H](O)C1` (stereo partly drawn) [Example 155B, 2-Amino-N-(1-{8-chloro-5-[(3R,5S)-3,5-dihydroxypiperidin-1-yl]imidazo[1,5-a]pyridin-6-yl}ethyl)pyrazolo[1,5-a]pyrimidine-3-carboxamide trifluoroacetate salt]: the IC50 in assay [1] is less than 100 nM; in assay [2], less than 100 nM; in assay [3] (setting [4]), less than 500 nM.
For `CC(NC(=O)c1c(N)nn2cccnc12)c1cc(Cl)c2cncn2c1N1C[C@@H](O)C[C@@H](F)C1` (stereo partly drawn) [Example 156, 2-Ammo-N-(1-{8-chloro-5-[(3R,5S)-3-fluoro-5-hydroxypiperidin-1-yl]imidazo[1,5-a]pyridin-6-yl}ethyl)pyrazolo[1,5-a]pyrimidine-3-carboxamide trifluoroacetate salt], the half-inhibitory concentration (IC50) in assay [1] is less than 2000 nM; in assay [2], less than 100 nM; in assay [3] (THP-1 cells), less than 1000 nM.
